{
  "source": "patent US20230381270A1",
  "about": "“PHARMACEUTICAL COMBINATIONS FOR TREATING CANCER” (POLYPHOR AG, priority 2017, published 2023)",
  "key": {"metastatic breast cancer": {"test_system": "metastatic breast cancer", "settings": "cited from earlier work"}, "advanced cancer": {"test_system": "advanced cancer", "settings": "monotherapy (Galsky 2014); cited from earlier work"}, "[1]": {"test_system": "other potential target receptors", "assay": "In vitro receptor binding studies, other receptors", "source_text": "(§1) Cyclo(-Tyr-His-Ala-Cys-Ser-Ala-^DPro-Dab-Arg-Tyr-Cys-Tyr-Gln-Lys-^DPro-Pro-) having a disulfide bond between Cys4 and Cys11 is also referred as POL6326 herein or balixafortide. POL6326 is a cyclic synthetic peptide consisting of 16 amino acids and an antagonist of the highly conserved chemokine receptor CXCR4 and is being developed as an IV treatment in combination with chemotherapy in patients with leukemias (autologous transplantation)."}, "human CXCR4 receptor": {"target": "human CXCR4 receptor (Homo sapiens, UniProt P61073)", "sequence (P61073 whole entry)": "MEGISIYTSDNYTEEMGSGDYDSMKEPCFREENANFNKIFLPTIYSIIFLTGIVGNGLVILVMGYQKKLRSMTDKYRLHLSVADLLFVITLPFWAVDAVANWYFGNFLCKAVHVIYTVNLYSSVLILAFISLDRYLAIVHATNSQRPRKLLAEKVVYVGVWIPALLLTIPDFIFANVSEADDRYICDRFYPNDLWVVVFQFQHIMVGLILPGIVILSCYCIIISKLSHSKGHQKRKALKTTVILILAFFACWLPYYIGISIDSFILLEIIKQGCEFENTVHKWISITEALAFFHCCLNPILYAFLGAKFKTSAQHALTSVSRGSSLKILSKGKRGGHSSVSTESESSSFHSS", "assay": "In vitro receptor binding studies", "source_text": "as §1"}, "[2]": {"assay": "Phase I trial of eribulin + POL6326: safety and tolerability (adverse events)", "format": "in vivo, human", "settings": "balixafortide-related; most frequent during Day 1, Cycle 1", "source_text": "This open-label, single-arm, non-randomised Phase I, dose escalation trial enrolled HER2-negative (any oestrogen or progesterone receptor status) females age […] years with histologically confirmed invasive breast cancer, stage IV disease (American Joint Committee on Cancer criteria), evidence of tumour cell CXCR4 expression by immunohistochemistry on tumour tissue (archival primary tumour, metastatic tissue, or from a fresh biopsy), and at least one measurable lesion according to Response Evaluation Criteria in Solid Tumours (RECIST) 1.1 criteria. Patients had previously received […] chemotherapy regimens for metastatic breast cancer (MBC). Patients with hormone receptor positive status must have failed at least one endocrine therapy or be considered unsuitable for endocrine therapy. Eligibility criteria also included an Eastern Cooperative Oncology Group performance status of 0 or 1. This phase I study investigates the combination of eribulin with POL6326 in relapsed metastatic breast cancer. The primary objectives are the safety, tolerability, and pharmacokinetics (PK) of this combination therapy, as well as the maximum tolerated dose (MTD) and recommended phase 2 dose (RP2D) of POL6326 when added to eribulin. Efficacy, as measured by tumor response, was additionally assessed.\nTreatment cycles of 21 days each. […]"}, "[3]": {"settings": "Phase II study, eribulin alone (Cortes et al 2010)"}, "[4]": {"settings": "Phase II study, eribulin alone (Vandat et al 2009)"}, "[5]": {"settings": "relapsed mBC patients in 3rd line and beyond, published data"}},
  "note": "Read-outs that look alike come from different tables or passages of the source.",
  "data": [
    {"molecule": "C=C1C[C@@H]2CC[C@@]34C[C@H]5O[C@H]6[C@@H](O3)[C@H]3O[C@H](CC[C@@H]3O[C@H]6[C@H]5O4)CC(=O)C[C@@H]3[C@@H](OC)[C@@H](C[C@H](O)CN)O[C@H]3C[C@H]3O[C@@H](CC[C@@H]1O2)C[C@@H](C)C3=C", "note": "[eribulin, 2-(3-amino-2-hydroxypropyl)hexacosahydro-3-methoxy-26-methyl-20,27-bis(methylene)11,15-18,21-24,28-triepoxy-7,9-ethano-12,15-methano-9H,15H-furo (3,2-i)furo(2′,3′-5,6)pyrano (4,3-b)(1,4)dioxacyclopentacosin-5-(4H)-one]", "values": [
      {"measurement": "CBR", "setting": "metastatic breast cancer; [3]", "result": 17.1, "unit": "%"},
      {"measurement": "ORR", "setting": "metastatic breast cancer; [3]", "result": 9, "unit": "%"},
      {"measurement": "CBR", "setting": "metastatic breast cancer; [4]", "result": 17.2, "unit": "%"},
      {"measurement": "ORR", "setting": "metastatic breast cancer; [4]", "result": 11.5, "unit": "%"},
      {"measurement": "mPFS", "setting": "metastatic breast cancer; eribulin alone, published trials recruiting similar patients", "result": "2.6-4.1 months"},
      {"measurement": "One year OS", "setting": "metastatic breast cancer; eribulin alone, reported", "result": 53.9, "unit": "%"},
      {"measurement": "ORR", "setting": "metastatic breast cancer; randomised Phase III trial (EMBRACE, Cortes 2011)", "result": 12, "unit": "%"},
      {"measurement": "ORR", "setting": "metastatic breast cancer; randomised Phase III trial (Kaufman 2015)", "result": 11, "unit": "%"},
      {"measurement": "overall survival (OS)", "setting": "metastatic breast cancer; [5]", "result": 13.1, "unit": "months"},
      {"measurement": "progression-free survival (PFS)", "setting": "metastatic breast cancer; [5]", "result": 3.7, "unit": "months"}
    ]},
    {"molecule": "LY2510924", "values": [
      {"measurement": "DLT", "setting": "advanced cancer", "result": "abnormal neutrophil count"}
    ]},
    {"molecule": "Cyclo(-Tyr-His-Ala-Cys-Ser-Ala-^DPro-Dab-Arg-Tyr-Cys-Tyr-Gln-Lys-^DPro-Pro-) having a disulfide bond between Cys4 and Cys11 [POL6326]", "values": [
      {"measurement": "binding to other potential target receptors", "setting": "[1]", "result": "general lack of significant binding"},
      {"measurement": "affinity for the human CXCR4 receptor", "setting": "human CXCR4 receptor", "result": "significant affinity"},
      {"measurement": "infusion-related reactions (IRRs)", "setting": "[2]", "result": "the majority were low grade"}
    ]}
  ]
}
